Data: US20180256570A1, “TOPICAL FORMULATIONS” (IGNYTA, INC., priority 2015, published 2018)

Tests used:
[1] = Solubility in IPA/DMSO and IPA/water/DMSO solutions; type: physicochemical
[2] = Stress testing with pure excipients (adduct formation); type: physicochemical
Description: Stress testing with pure excipients was also conducted.

[3] = Solubility in common topical excipients and solvent mixtures; type: physicochemical
[4] = Human cadaver skin permeability assay, Franz diffusion cells (flux, Papp)
Description: Static, vertical glass Franz diffusion cells were used for the permeability assay.
The dosing solution with control compounds (atenolol and testosterone, 100 μM each) was prepared in PBS buffer at pH 7.4 immediately prior to the start of the permeability experiments. The skin was kept frozen at −80° C. until the time of the study. The skin was thawed at room temperature and cut to appropriate size (˜2×2 cm). The thickness of each piece was measured and they were grouped based on thickness to ensure that the average thickness was similar across groups. Tissue was mounted in the Franz cell diffusion chamber and clamped between the donor and receiver chambers. The exposed surface area of the Franz cell diffusion chamber was 1.77 cm^2. The receiver compartment was filled with 8 mL PBS at pH 7.4 with 1% Oleth 20 for all test groups, or PBS at pH 7.4 for the control group. The reservoir also contained a magnetic stir bar, stirring at 400 RPM to ensure homogeneity of the reservoir contents. […]
Each formulated test compound (35.4 μL by volume) was dispensed into the donor chamber using the reverse pipetting technique, after warming the cream in a water bath at 37° C. […] Each formulation was also analyzed to verify the concentration of the test compound. […]

[5] = Accumulation in epidermis and dermis of human skin after permeability assay; type: in vitro ADME
Source text: All chambers were covered to minimize evaporation.
The concentration of the test compounds is expressed as the amount (μg) normalized by the tissue weight of each layer (g).

SMILES: CN(C(=O)c1ccc(F)cc1C(F)(F)F)C1CCN(c2nnc(-c3ccnn3C)c3ccccc23)CC1 [4-fluoro-N-methyl-N-(1-(4-(1-methyl-1H-pyrazol-5-yl)phthalazin-1-yl)piperidin-4-yl)-2-(trifluoromethyl)benzamide]
- solubility in IPA/DMSO solutions ([1]; above 20% DMSO, increasing DMSO, absence of water): increased
- solubility in IPA/water/DMSO solutions ([1]; as percentage of water increased (5%, 10%, 20% or 30% water)): less solubility
- adduct formation ([2]; excipients containing unhindered hydroxyl groups (ethanol, benzyl alcohol, Transcutol)): Adducts were observed
- adduct formation ([2]; isopropyl alcohol): no adduct was observed
- Solubility in cosolvent, aqueous and lipophilic mixtures ([3]; Table 2 (not given)): solubility is highest in ethanol/water mixtures
- Solubility ([3]; solvent DMSO): 27.65 mg/g
- Solubility ([3]; solvent EtOH): 13.66 mg/g
- Solubility ([3]; solvent EtOH-Water (1:1) v/v): 2.51 mg/g
- Solubility ([3]; solvent EtOH-Water (3:1) v/v): 18.76 mg/g
- Solubility ([3]; solvent IPA-Water (3:1) v/v): 18.73 mg/g
- Solubility ([3]; solvent Isopropyl alcohol): 5.15 mg/g
- Solubility ([3]; solvent NMP): 107.02 mg/g

SMILES: Cc1c(C(=O)Nc2ccc(N3C[C@@H](C)O[C@@H](C)C3)nc2)cccc1-c1ccc(OC(F)(F)F)cc1 [LDE225]
- flux, comparison between formulations ([4]; human cadaver skin): tended to be lower than that of Formulation A2
- accumulation in dermis, comparison [5]: significantly less
- accumulation in epidermis, comparison [5]: significantly less

SMILES: C[C@]12CC[C@H]3[C@@H](CCC4=CC(=O)CC[C@@]43C)[C@@H]1CC[C@@H]2O [testosterone]
- ratio of testosterone to atenolol Papp ([4]; control compounds, 100 μM each in PBS pH 7.4): greater than 2
